Laboratory results taken from the supplement of paper PMC10307832.

What was measured:
Assay in all cases: relative viability (nuclei count vs DMSO), 5 days (fraction); higher = more cells survive
Pemetrexed + Palbociclib = compound: Nc1nc2[nH]cc(CCc3ccc(C(=O)N[C@@H](CCC(=O)O)C(=O)O)cc3)c2c(=O)[nH]1 [Pemetrexed] + CC(=O)c1c(C)c2cnc(Nc3ccc(N4CCNCC4)cn3)nc2n(C2CCCC2)c1=O [Palbociclib] (partner 0.5 µM)
Outline: (§1)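 Lung cancer cell lines were seeded in 1536-well plates and dosed by pin tool the next day, with either a single drug or a fixed anchor-drug dose combined with five library-drug doses (not always all listed) spaced in √10 steps. Five days later, one step fixed the cells and stained their nuclei (final 0.05% Triton X-100, 1% formaldehyde, 1 ug/ml Hoechst), and nuclei were counted on 4× images. Relative viability is the nuclei count in treated wells divided by the count in vehicle wells, and each value is the median of duplicate plates.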

Pemetrexed + OSI-027 = compound: Nc1nc2[nH]cc(CCc3ccc(C(=O)N[C@@H](CCC(=O)O)C(=O)O)cc3)c2c(=O)[nH]1 [Pemetrexed] + COc1cccc2cc(-c3nc([C@H]4CC[C@H](C(=O)O)CC4)n4ncnc(N)c34)[nH]c12 [OSI-027] (partner 0.5 µM)
Outline: as §1

Idelalisib + AZD7762 = compound: CC[C@H](Nc1ncnc2[nH]cnc12)c1nc2cccc(F)c2c(=O)n1-c1ccccc1 [Idelalisib] + NC(=O)Nc1cc(-c2cccc(F)c2)sc1C(=O)N[C@H]1CCCNC1 [AZD7762] (partner 0.2 µM)
Outline: as §1

Idelalisib + Trametinib = compound: CC[C@H](Nc1ncnc2[nH]cnc12)c1nc2cccc(F)c2c(=O)n1-c1ccccc1 [Idelalisib] + CC(=O)Nc1cccc(-n2c(=O)n(C3CC3)c(=O)c3c(Nc4ccc(I)cc4F)n(C)c(=O)c(C)c32)c1 [Trametinib] (partner 0.02 µM)
Outline: as §1

Cell Line | relative viability (Pemetrexed + Palbociclib; first compound 0.002 µM) | relative viability (Pemetrexed + Palbociclib; first compound 0.006325 µM) | relative viability (Pemetrexed + Palbociclib; first compound 0.02 µM) | relative viability (Pemetrexed + Palbociclib; first compound 0.06325 µM) | relative viability (Pemetrexed + Palbociclib; first compound 0.2 µM) | relative viability (Pemetrexed + OSI-027; first compound 0.002 µM) | relative viability (Pemetrexed + OSI-027; first compound 0.006325 µM) | relative viability (Pemetrexed + OSI-027; first compound 0.02 µM) | relative viability (Pemetrexed + OSI-027; first compound 0.06325 µM) | relative viability (Pemetrexed + OSI-027; first compound 0.2 µM) | relative viability (Idelalisib + AZD7762; first compound 0.04 µM) | relative viability (Idelalisib + AZD7762; first compound 0.1265 µM) | relative viability (Idelalisib + AZD7762; first compound 0.4 µM) | relative viability (Idelalisib + AZD7762; first compound 1.265 µM) | relative viability (Idelalisib + AZD7762; first compound 4 µM) | relative viability (Idelalisib + Trametinib; first compound 0.04 µM) | relative viability (Idelalisib + Trametinib; first compound 0.1265 µM) | relative viability (Idelalisib + Trametinib; first compound 0.4 µM) | relative viability (Idelalisib + Trametinib; first compound 1.265 µM) | relative viability (Idelalisib + Trametinib; first compound 4 µM)
NCI-H1792 | 0.7 | 0.608 | 0.685 | 0.671 | 0.642 | 0.735 | 0.808 | 0.778 | 0.715 | 0.744 | 0.737 | 0.803 | 0.452 | 0.493 | 0.388 | 0.487 | 0.522 | 0.271 | 0.56 | 0.267
NCI-H1651 | 0.548 | 0.477 | 0.52 | 0.495 | 0.529 | 0.61 | 0.66 | 0.805 | 0.624 | 0.717 | 0.522 | 0.456 | 0.46 | 0.245 | 0.519 | 0.825 | 0.85 | 0.815 | 0.844 | 0.814
HCC-366 | 0.356 | 0.349 | 0.349 | 0.367 | 0.226 | 0.485 | 0.795 | 1.04 | 0.922 | 0.816 | 0.248 | 0.317 | 0.242 | 0.106 | 0.249 | 0.362 | 0.464 | 0.274 | 0.354 | 0.233
EKVX | 0.386 | 0.365 | 0.407 | 0.399 | 0.284 | 0.673 | 0.678 | 0.693 | 0.706 | 0.611 | 0.706 | 0.698 | 0.596 | 0.558 | 0.64 | 0.332 | 0.406 | 0.352 | 0.334 | 0.278
NCI-H1993 | 1.1 | 0.605 | 0.635 | 0.727 | 0.554 | 0.609 | 0.524 | 0.503 | 0.504 | 0.585 | 0.647 | 0.839 | 0.652 | 0.714 | 0.623 | 0.688 | 0.302 | 0.617 | 0.547 | 0.448
NCI-H522 | 1.22 | 0.82 | 1.09 | 0.985 | 0.843 | 0.794 | 0.65 | 0.796 | 0.706 | 0.676 | 0.857 | 0.909 | 0.849 | 0.745 | 0.851 | 0.76 | 0.646 | 0.668 | 0.727 | 0.731
NCI-H1703 | – | – | – | – | – | – | – | – | – | – | – | 0.124 | – | 0.0966 | 0.126 | – | – | – | – | –
NCI-H23 | 0.451 | 0.439 | 0.448 | 0.503 | 0.473 | 0.516 | 0.532 | 0.623 | 0.684 | 0.663 | 0.265 | 0.218 | 0.247 | 0.195 | 0.235 | 0.462 | 0.38 | 0.281 | 0.399 | 0.312
HCC-827 | 0.386 | 0.413 | 0.529 | 0.44 | 0.327 | 0.663 | 0.756 | 0.899 | 0.764 | 0.591 | 0.216 | 0.212 | 0.31 | 0.153 | 0.199 | 0.578 | 0.517 | 0.473 | 0.476 | 0.424
PC-3 [JPC-3] | 0.483 | 0.54 | 0.536 | 0.578 | 0.503 | 0.59 | 0.786 | 0.715 | 0.916 | 0.765 | 0.916 | 0.889 | 0.806 | 0.707 | 0.569 | 0.721 | 0.69 | 0.724 | 0.607 | 0.496
SK-LU-1 | 0.54 | 0.379 | 0.391 | 0.413 | 0.375 | 0.312 | 0.319 | 0.398 | 0.352 | 0.34 | – | – | – | – | – | 0.422 | 0.467 | 0.394 | 0.492 | 0.414
NCI-H1563 | – | – | – | – | – | 0.731 | 0.695 | 0.803 | 0.728 | 0.778 | – | – | – | – | – | – | – | – | – | –
SW 1573 | 0.352 | 0.423 | 0.435 | 0.413 | 0.235 | 0.602 | 0.465 | 0.718 | 0.646 | 0.61 | – | – | – | – | – | 0.688 | 0.468 | 0.477 | 0.506 | 0.383
NCI-H2009 | 0.263 | 0.205 | 0.194 | 0.22 | 0.203 | 0.573 | 0.607 | 0.749 | 0.66 | 0.683 | – | – | – | – | – | 0.297 | 0.232 | 0.201 | 0.228 | 0.179
SK-MES-1 | 0.316 | 0.305 | 0.353 | 0.33 | 0.327 | 0.72 | 0.611 | 0.615 | 0.572 | 0.554 | – | – | – | – | – | 0.497 | 0.482 | 0.426 | 0.477 | 0.353
NCI-H2228 | 0.579 | 0.755 | 0.746 | 0.341 | 0.268 | 0.506 | – | 0.566 | 0.565 | 0.218 | – | – | – | – | – | 0.49 | 0.684 | 0.429 | 0.583 | 0.381
COR-L23 | 0.21 | 0.275 | 0.254 | 0.149 | 0.127 | 0.699 | 0.781 | 0.799 | 0.275 | 0.163 | – | – | – | – | – | 0.603 | 0.639 | 0.538 | 0.62 | 0.578
NCI-H520 | 0.225 | 0.238 | 0.271 | 0.243 | 0.248 | 0.225 | 0.246 | 0.321 | 0.267 | 0.265 | – | – | – | – | – | 0.793 | 0.566 | 0.479 | 0.628 | 0.613
COR-L 105 | 0.295 | 0.424 | 0.399 | 0.396 | 0.423 | 0.735 | 0.638 | 1.01 | 0.646 | 0.619 | – | – | – | – | – | 0.518 | 0.41 | 0.41 | 0.456 | 0.461
NCI-H2023 | 0.347 | 0.387 | 0.384 | 0.323 | 0.125 | 0.248 | 0.38 | 0.464 | 0.295 | 0.166 | – | – | – | – | – | 0.487 | 0.533 | 0.49 | 0.537 | 0.37
